Measurements published in patent US20220184222A1, “BICYCLE TOXIN CONJUGATES AND USES THEREOF” (BicycleTx Limited, priority 2019, published 2022).
Starred links: 1 amine or outer side, 2 acyl side, 3 side chain; linkers in the order of their positions; H or OH if unused. Non-standard residues stand in square brackets, D forms with d. Residues, ends and D or L forms follow the SMILES beside them. *: point of attachment. Dolaproine = CO[C@@H]([C@@H]1CCCN1)[C@@H](C)C(=O)O; Dil = CC[C@H](C)[C@H](NC)[C@@H](CC(=O)O)OC; PABC = O=C(OCc1ccc(N[*:1])cc1)[*:2]; X1 = O=C(CCCC(=O)*)ON1C(=O)CCC1=O; X2 = C[C@@H](N*)[C@@H](O)c1ccccc1; Cit = NC(=O)NCCC[C@H](N)C(=O)O; NMeV = CN[C@H](C(=O)O)C(C)C

Columns and labels:
pHH3 = assay: In vivo PD in PC-3 CDX model: tumor pHH3 IHC, mitotic arrest (Example 4); design: species or system Mus Musculus; settings: single dose
Method: The objective of the research is to evaluate the in vivo PK/PD of test agents in treatment of PC-3 CDX model in Balb/c nude mice.
Each mouse was inoculated subcutaneously at the right flank with PC-3 tumor cells (10×10^6) in 0.2 mL of PBS for tumor development. The animals were randomized and dosed when the average tumor volume reached approximately 440 mm^3 for the PK/PD study. The test article administration and time points in each group were shown in the experimental design table.
Mice were randomly grouped based on tumor volume and dosed as experimental design. Plasma, serum, muscle and tumors were collected at 1 h, 2 h, 8 h, 24 h, 48 h, 72 h and 96 h post dosing.
3 tumors of a mouse cohort were embed into 1 FFPE block.
• 5 μm FFPE tissue section loaded on Ventana XT; • Deparaffinization was selected; • EDTA based CC1 Standard heat antigen retravel was selected; • Option 1 (Protein blocker, Invitrogen Cat #1890588) was selected and incubate for 32 Min; • CC3 antibody (CST Cat #9661) 1:200 dilution was applied and incubated for 60 min at 37° C. • Apply One Drop of [OMap anti-Rb HRP] […]

[1] = tested on: PC-3M-luc-C6 human prostate carcinoma; assay: Intracardially implanted PC-3M-Luc-C6 metastatic model, BLI and survival (Example 6); type: in vivo, Mouse; settings: for Day 26 T/C: BLI total bone signal; for tumor growth delay: evaluation size 9.0E+07 p/s
Method: The purpose of this study was to evaluate the efficacy and overall impact of Bicycle toxin conjugate BT5528 against established intracardially implanted PC-3M-luc-C6 human prostate carcinoma in male nude mice, with treatment regimens starting at different disease stages (Day 14 and Day 21). Response was monitored using bioluminescence imaging (BLI) on Days 14, 21, 28, 35, and 42 coupled with traditional survival endpoints.
BT5528: • Formulation pH: 5.4 • High Dose Formulation: 0.15 mg/mL • Vehicle: 50 mM Acetate, 10% Sucrose • Storage: 4° C. • Dose volume: 0.01 mL/g
All procedures carried out in this experiment were conducted in compliance with the applicable laws, regulations and guidelines of the National Institutes of Health (NIH). • Species: Mouse • Strain: Envigo nude mice (Hsd:Athymic Nude-Foxn1^nu) • Age at implant: 5-6 weeks • Sex: male • Min weight (D14): 24.9 g • Mean weight (D14): 28.4 g (range of group means, 27.7-28.8 g)
Animals were anesthetized with an IP injection of a ketamine (100 mg/kg)/xylazine (6 mg/kg) cocktail. When the animals were non-responsive (determined by a toe pinch test), 100 μl of cell suspension (3.0 E+06 cells) were drawn into a 1 ml syringe and a 27×½″ gauge needle was then attached. A small air bubble is created in the plunger side of the syringe before injection. The needle was then inserted slowly through the center of the second intercostal space, approximately 3 mm to the left of the sternum and aimed centrally until a continuous pulsation of bright red oxygenated blood into the needle hub was observed. 100 μl of cell suspension was then slowly injected over 5 seconds. A fresh needle and syringe were used for each animal.
Animals were injected with firefly D-luciferin (150 mg/kg) by IP administration according to body weight (0.2 ml/20 g). The success of the intracardiac injections was verified by a one minute bioluminescence scan using large binning (high sensitivity) of the CCD chip immediately after the injection. Mice with signals from the entire body, from snout to base of the tail, were deemed to have been successfully injected, while mice with signals localized to the chest area only, or not fully extending into the snout, were triaged from the study immediately.
All mice were sorted into study groups based on body weight and BLI-derived estimation of tumor burden.
BLI was performed using an IVIS S5 Lumina system (PerkinElmer, Waltham, Mass.). Animals were imaged five at a time under 1-2% isoflurane gas anesthesia. Each mouse was injected IP with 150 mg/kg (15 mg/ml) D-luciferin and imaged in the prone then supine positions 10 minutes after the injection. Large binning of the CCD chip was used, and the exposure time was adjusted (10 seconds to 2 minutes) to obtain at least several hundred counts per image and to avoid saturation of the CCD chip. BLI images were collected on Days 0, 7, 14, 21, 28, 35, 42, 49, 56 and 63 post-implant.
Images were analyzed using Living Image 4.7.1 (PerkinElmer, MA) software. Each unique tissue signal was circled manually and labeled based on anatomical site as mandible or hind limb for both prone and supine images. For limbs, the signal was also designated as being from the right or left side of the mouse.
Signal flux (photons/sec) were calculated for each unique metastatic signal and exported for all ROIs to facilitate analyses between groups.
Study was terminated on Day 78. All BLI endpoint calculations were derived from total bone values. The BLI background signal for this study was measured at 1.20 E+05 p/s. An animal was credited with a partial regression if the BLI signal fell below half the staging BLI signal level. Similarly, a complete regression (CR) was credited if the BLI signal fell below the background level, and a tumor-free survivor was if the BLI signal was below background on last day of imaging (Day 63), with no evidence of disease at necropsy. […]

[2] = 1.5 mg/kg IV Q7D × 4 starting Day 14
[3] = 1.5 mg/kg IV Q7D × 4 starting Day 21

CC[C@H](C)[C@@H]([C@@H](CC(=O)N1CCC[C@H]1[C@H](OC)[C@@H](C)C(=O)N[C@H](C)[C@@H](O)c1ccccc1)OC)N(C)C(=O)[C@@H](NC(=O)[C@H](C(C)C)N(C)C(=O)OCc1ccc(NC(=O)[C@H](CCCNC(N)=O)NC(=O)[C@@H](NC(=O)CCCC(=O)ON2C(=O)CCC2=O)C(C)C)cc1)C(C)C [BT5528] (X1-V[Cit][PABC][NMeV]V[Dil][Dolaproine]-X2)
mitotic arrest in tumor measurable by pHH3 IHC, time after dose (pHH3): ≤ 24 hours
mitotic arrest of tumor cells, time post-dose (pHH3): 24 to 48 h
incidence of partial regressions [1, 2]: 60%
increased lifespan (ILS) [1, 2]: 177.3%
Day 26 T/C [1, 2]: 1%
tumor growth delay [1, 2]: > 35.1 days
increased lifespan (ILS) [1, 3]: 145.5%
less incidence of partial regressions than with Day 14 start [1, 3]: 40%
Day 26 T/C [1, 3]: 3.4%
tumor growth delay [1, 3]: > 35.1 days
bone tumor cell burden and survival ([1]; 4 weekly treatment cycles): reduced the bone tumor cell burden significantly and extended the survival of the mice
mice at the end of the study (D78) without observable (macroscopic) disease ([1]; mouse, in vivo): 1 mouse
